Consider one compound from ChEMBL document CHEMBL5678803, “Selective blockade of TRPA1 channel attenuates pathological pain without altering noxious cold sensation or body temperature regulation” (Pain, 2011).

Calls of active or inactive are those of the source. The rule behind the calls is not given here.

The target in series [1] is T1, Transient receptor potential cation channel subfamily A member 1 (Rattus norvegicus, UniProt Q6RI86). As to the kind of experiment: Antagonist activity at rat TRPA1 expressed in HEK293F cells assessed as reduction in AITC-induced increase in intracellular Ca2+ level by FLIPR-based Ca2+ assay. In kind it is cell-based.
T1 sequence (Q6RI86 whole entry): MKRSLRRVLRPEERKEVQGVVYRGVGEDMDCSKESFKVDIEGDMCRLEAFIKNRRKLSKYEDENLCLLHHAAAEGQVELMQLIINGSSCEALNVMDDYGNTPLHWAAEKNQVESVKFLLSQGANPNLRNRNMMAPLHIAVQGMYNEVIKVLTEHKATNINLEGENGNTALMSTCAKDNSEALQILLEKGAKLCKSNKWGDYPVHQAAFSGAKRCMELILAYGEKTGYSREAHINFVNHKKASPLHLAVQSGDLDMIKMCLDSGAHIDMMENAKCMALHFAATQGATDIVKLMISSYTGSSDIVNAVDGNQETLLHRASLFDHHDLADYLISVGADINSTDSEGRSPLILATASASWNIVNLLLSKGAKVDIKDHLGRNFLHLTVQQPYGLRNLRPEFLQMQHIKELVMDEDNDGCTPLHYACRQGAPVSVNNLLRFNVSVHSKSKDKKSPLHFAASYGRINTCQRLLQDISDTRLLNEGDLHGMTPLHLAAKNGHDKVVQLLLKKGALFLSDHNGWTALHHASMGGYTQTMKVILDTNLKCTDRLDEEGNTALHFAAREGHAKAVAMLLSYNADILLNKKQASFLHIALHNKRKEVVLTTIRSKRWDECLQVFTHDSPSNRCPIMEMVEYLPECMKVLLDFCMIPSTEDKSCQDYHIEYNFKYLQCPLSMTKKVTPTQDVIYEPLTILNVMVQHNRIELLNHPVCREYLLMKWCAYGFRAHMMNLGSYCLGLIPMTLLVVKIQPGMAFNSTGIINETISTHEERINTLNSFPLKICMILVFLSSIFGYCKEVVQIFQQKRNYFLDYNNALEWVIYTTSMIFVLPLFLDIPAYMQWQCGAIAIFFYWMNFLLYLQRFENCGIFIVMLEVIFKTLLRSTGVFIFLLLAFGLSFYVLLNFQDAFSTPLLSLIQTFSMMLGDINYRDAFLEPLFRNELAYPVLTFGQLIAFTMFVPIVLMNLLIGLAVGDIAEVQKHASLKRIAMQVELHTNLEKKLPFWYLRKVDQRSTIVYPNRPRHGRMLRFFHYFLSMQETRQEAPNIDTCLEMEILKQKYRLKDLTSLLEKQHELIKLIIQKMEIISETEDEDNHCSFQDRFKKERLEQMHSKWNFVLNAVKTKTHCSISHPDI
Series [2] addresses Transient receptor potential cation channel subfamily A member 1 (Mus musculus, UniProt Q8BLA8). As to the kind of experiment: Antagonist activity at mouse TRPA1 expressed in HEK293F cells assessed as reduction in AITC-induced increase in intracellular Ca2+ level by FLIPR-based Ca2+ assay. It is filed as cell-based.
Series [3] has as its target T1, Transient receptor potential cation channel subfamily A member 1. Put plainly: Antagonist activity at GFP-tagged rat TRPA1 transfected in HEK293F cells assessed as reduction in AITC-induced inward current at -60 mV holding potential by electrophysiological recordings. In kind it is cell-based.
Series [4] concerns the target T2, Transient receptor potential cation channel subfamily V member 1 (Homo sapiens, UniProt Q8NER1). As to the kind of experiment: Activation of human TRPV1 expressed in HEK293F cells upto 100 micromol/L. It is filed as cell-based. The following applies: dose <= 100.0 µmol/L.
Series [5] addresses T3, Transient receptor potential cation channel subfamily V member 3 (Homo sapiens) (UniProt Q8NET8).
T3 sequence (whole entry): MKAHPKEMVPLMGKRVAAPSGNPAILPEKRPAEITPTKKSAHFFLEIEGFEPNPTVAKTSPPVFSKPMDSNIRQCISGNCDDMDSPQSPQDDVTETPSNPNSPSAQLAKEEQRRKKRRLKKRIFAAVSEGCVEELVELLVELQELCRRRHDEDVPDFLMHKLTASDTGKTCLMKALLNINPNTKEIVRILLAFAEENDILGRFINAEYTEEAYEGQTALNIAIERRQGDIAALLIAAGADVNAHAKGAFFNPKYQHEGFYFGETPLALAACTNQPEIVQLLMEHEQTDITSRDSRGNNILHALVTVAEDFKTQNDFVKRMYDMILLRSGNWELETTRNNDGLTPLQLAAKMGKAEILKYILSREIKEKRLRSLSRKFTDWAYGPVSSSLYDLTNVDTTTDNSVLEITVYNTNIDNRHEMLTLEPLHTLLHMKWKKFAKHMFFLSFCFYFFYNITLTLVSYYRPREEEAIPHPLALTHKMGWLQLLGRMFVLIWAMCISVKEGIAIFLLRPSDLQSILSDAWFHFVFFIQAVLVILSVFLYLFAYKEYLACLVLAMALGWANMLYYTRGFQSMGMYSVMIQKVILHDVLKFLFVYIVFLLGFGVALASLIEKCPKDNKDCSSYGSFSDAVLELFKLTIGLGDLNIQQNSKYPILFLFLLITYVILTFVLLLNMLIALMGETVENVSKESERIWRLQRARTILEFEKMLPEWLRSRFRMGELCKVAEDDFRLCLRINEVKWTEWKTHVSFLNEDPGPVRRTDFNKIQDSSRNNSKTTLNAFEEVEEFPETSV
Put plainly: Activation of endogenous TRPV3 in human epithelial cells upto 100 micromol/L. It is filed as cell-based. The following applies: Epithelial cell, dose <= 100.0 µmol/L.

The target in series [6] is Transient receptor potential cation channel subfamily V member 4 (Homo sapiens, UniProt Q9HBA0). As to the kind of experiment: Activation of human TRPV4 expressed in HEK293F cells upto 100 micromol/L. As to conditions: dose <= 100.0 µmol/L. It is filed as cell-based.
The target in series [7] is T4, Transient receptor potential cation channel subfamily M member 8 (Homo sapiens, UniProt Q7Z2W7). Put plainly: Activation of human TRPM8 expressed in HEK293F cells upto 100 micromol/L. It is filed as cell-based. As to conditions: dose <= 100.0 µmol/L.
Target sequence in this assay (Q7Z2W7 whole entry, looked up): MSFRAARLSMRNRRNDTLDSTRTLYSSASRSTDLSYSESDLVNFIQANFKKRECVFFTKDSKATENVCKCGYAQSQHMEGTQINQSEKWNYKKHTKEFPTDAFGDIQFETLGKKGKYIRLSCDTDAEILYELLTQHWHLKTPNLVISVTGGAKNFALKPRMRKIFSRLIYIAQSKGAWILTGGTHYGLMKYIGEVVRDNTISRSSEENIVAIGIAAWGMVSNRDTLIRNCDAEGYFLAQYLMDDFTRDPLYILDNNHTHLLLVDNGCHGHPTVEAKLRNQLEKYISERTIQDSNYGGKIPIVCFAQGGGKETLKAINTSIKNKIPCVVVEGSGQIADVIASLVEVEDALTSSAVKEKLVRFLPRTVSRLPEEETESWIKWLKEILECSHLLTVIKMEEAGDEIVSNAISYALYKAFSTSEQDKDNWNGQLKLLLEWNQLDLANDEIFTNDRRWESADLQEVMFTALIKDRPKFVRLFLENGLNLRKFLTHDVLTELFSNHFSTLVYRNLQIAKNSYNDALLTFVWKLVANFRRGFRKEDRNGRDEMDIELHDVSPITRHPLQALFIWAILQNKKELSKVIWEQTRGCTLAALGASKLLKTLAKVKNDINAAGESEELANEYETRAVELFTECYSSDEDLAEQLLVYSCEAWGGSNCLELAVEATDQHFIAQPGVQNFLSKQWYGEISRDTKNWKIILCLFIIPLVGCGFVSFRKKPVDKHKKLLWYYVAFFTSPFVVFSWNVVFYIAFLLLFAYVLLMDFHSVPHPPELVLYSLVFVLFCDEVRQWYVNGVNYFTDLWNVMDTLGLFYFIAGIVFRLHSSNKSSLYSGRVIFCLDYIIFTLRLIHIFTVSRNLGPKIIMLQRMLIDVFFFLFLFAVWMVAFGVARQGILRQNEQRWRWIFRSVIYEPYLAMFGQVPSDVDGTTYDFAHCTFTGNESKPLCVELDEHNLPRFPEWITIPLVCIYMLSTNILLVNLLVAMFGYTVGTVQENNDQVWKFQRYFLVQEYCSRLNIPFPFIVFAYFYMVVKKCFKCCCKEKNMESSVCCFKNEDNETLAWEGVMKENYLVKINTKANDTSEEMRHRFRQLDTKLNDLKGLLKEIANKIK
For series [8], the target named is T2, Transient receptor potential cation channel subfamily V member 1. Put plainly: Antagonist activity at human TRPV1 expressed in HEK293F cells assessed as inhibition of capsaicin-induced increase in intracellular Ca2+ level by FLIPR-based Ca2+ assay. It is filed as cell-based.
Series [9] concerns the target T5, Transient receptor potential cation channel subfamily V member 3 (Homo sapiens, UniProt Q8NET8).
T5 sequence (Q8NET8 whole entry): T3 sequence (whole entry)
Put plainly: Antagonist activity at endogenous TRPV3 in human epithelial cells assessed as inhibition of 2APB-induced increase in intracellular Ca2+ level by FLIPR-based Ca2+ assay. It is filed as cell-based, Epithelial cell.

The target of series [10] is T4, Transient receptor potential cation channel subfamily M member 8. As to the kind of experiment: Antagonist activity at human TRPM8 expressed in HEK293F cells assessed as inhibition of menthol-induced increase in intracellular Ca2+ level by FLIPR-based Ca2+ assay. It is filed as cell-based.
Target sequence in this assay (Q7Z2W7 whole entry): as the sequence (Q7Z2W7 whole entry, looked up) above
The target in series [11] is T2, Transient receptor potential cation channel subfamily V member 1. As to the kind of experiment: Antagonist activity at human TRPV1 expressed in HEK293F cells assessed as inhibition of capsaicin-induced TRPV1 channel activation by FLIPR-based Ca2+ assay relative to control. In kind it is cell-based. The following applies: concentration not given here.
Series [12] concerns the target T3, Transient receptor potential cation channel subfamily V member 3 (Homo sapiens). Put plainly: Antagonist activity at endogenous TRPV3 in human epithelial cells assessed as inhibition of 2APB-induced TRPV3 channel activation by FLIPR-based Ca2+ assay relative to control. The following applies: Epithelial cell, concentration not given here.
For series [13], the target named is Sodium-dependent noradrenaline transporter (Homo sapiens) (UniProt P23975). Put plainly: Inhibition of norepinephrine transporter (unknown origin) at 10 micromol/L by radioligand binding assay. The following applies: dose 10.0 µmol/L.
Sequence of Sodium-dependent noradrenaline transporter (Homo sapiens) (P23975 whole entry): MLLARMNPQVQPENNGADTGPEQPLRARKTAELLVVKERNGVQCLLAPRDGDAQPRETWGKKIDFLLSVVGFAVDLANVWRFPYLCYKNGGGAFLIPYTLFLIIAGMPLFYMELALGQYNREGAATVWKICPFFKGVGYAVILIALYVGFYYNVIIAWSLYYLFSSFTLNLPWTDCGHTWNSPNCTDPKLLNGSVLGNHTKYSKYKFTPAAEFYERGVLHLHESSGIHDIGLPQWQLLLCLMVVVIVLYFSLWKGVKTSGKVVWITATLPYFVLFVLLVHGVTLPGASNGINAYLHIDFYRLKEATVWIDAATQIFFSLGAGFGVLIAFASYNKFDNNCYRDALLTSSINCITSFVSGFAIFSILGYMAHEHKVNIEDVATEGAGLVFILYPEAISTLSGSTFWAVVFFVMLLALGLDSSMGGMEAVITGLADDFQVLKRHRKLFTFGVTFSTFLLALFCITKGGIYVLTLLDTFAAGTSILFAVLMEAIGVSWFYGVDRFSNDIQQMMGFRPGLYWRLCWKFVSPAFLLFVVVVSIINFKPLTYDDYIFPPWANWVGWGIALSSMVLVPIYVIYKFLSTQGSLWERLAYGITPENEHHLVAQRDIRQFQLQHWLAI
The target of series [14] is Transient receptor potential cation channel subfamily A member 1 (Rattus norvegicus) (UniProt Q6RI86). Put plainly: Antagonist activity at endogenous TRPA1 in rat DRG neurons assessed as blockade of AITC-induced Ca2+ signals at 1 micromol/L by […] Ca2+ imaging analysis. In kind it is cell-based. As to conditions: DRG neuron, filed as antagonist, dose 1.0 µmol/L.
Sequence of Transient receptor potential cation channel subfamily A member 1 (Rattus norvegicus) (Q6RI86 whole entry): as the sequence (Q6RI86 whole entry) above

Series [15] has the same target. As to the kind of experiment: Antagonist activity at endogenous TRPA1 in rat DRG neurons assessed as blockade of AITC-induced CGRP release at 5 micromol/L. It is filed as cell-based. As to conditions: DRG neuron, filed as antagonist, dose 5.0 µmol/L.
The target is the same in series [16]. As to the kind of experiment: Antagonist activity at endogenous TRPA1 in rat DRG neurons assessed as blockade of capsaicin-induced CGRP release at 50 micromol/L. In kind it is cell-based. As to conditions: DRG neuron, dose 50.0 µmol/L.
Series [17] can be described thus: Oral bioavailability in rat at 2 mg/kg. In kind it is ADME, organism-based. As to conditions: in vivo.
Series [18] is described as follows: Cmax in rat at 2 mg/kg, po. It is filed as ADME, organism-based. As to conditions: in vivo.
A short description of series [19]: Ratio of drug concentration in rat brain to plasma at 2 mg/kg, po. It is filed as ADME, organism-based. The following applies: read-out: BPR.
The nature of series [20]: Unbound drug concentration in rat at 62.1 mg/kg, po measured after 60 mins. In kind it is ADME, organism-based. As to conditions: in vivo, 1 h.
A short description of series [21]: Toxicity in Sprague-Dawley rat assessed as effect on heart rate. The following applies: in vivo.
Series [22] can be described thus: Toxicity in Sprague-Dawley rat assessed as effect on tail withdrawal latency to hot water immersion at 55 degreeC at 62.1 mg/kg, po by tail immersion test. It is filed as organism-based. As to conditions: in vivo.
Series [23] relates to Rattus norvegicus. As to the kind of experiment: Antiallodynic activity in CCI-induced neuropathic pain Sprague-Dawley rat model assessed as attenuation of mechanical allodynia at 6.2 to 62.1 mg/kg, po administered with compound for 1 hrs and measured 10 to 14 days after surgery. It is filed as functional, organism-based. The following applies: dose 6.2-62.1 mg/kg, time 241-337 hrs.

Series [24] concerns Rattus norvegicus. As to the kind of experiment: Antiallodynic activity in CFA-induced mechanical allodynia Sprague-Dawley rat model assessed as attenuation of mechanical allodynia at 6.2 to 62.1 mg/kg, po administered with compound for 1 hrs and measured 48 hrs after CFA injection. In kind it is functional, organism-based. As to conditions: dose 6.2-62.1 mg/kg, time 49.0 hrs.

By IC50 is commonly meant the point on the concentration scale where inhibition reaches its midpoint. The inhibition is the percentage by which the read-out fell short of the control. One may read the bioavailability as the share of a dose that reaches the circulation, judged against a reference dose that is usually intravenous. The low end stands for little systemic uptake, the high end for much systemic uptake. For orientation: Cmax means the peak of the concentration-time curve.

T2 sequence (Q8NER1 whole entry): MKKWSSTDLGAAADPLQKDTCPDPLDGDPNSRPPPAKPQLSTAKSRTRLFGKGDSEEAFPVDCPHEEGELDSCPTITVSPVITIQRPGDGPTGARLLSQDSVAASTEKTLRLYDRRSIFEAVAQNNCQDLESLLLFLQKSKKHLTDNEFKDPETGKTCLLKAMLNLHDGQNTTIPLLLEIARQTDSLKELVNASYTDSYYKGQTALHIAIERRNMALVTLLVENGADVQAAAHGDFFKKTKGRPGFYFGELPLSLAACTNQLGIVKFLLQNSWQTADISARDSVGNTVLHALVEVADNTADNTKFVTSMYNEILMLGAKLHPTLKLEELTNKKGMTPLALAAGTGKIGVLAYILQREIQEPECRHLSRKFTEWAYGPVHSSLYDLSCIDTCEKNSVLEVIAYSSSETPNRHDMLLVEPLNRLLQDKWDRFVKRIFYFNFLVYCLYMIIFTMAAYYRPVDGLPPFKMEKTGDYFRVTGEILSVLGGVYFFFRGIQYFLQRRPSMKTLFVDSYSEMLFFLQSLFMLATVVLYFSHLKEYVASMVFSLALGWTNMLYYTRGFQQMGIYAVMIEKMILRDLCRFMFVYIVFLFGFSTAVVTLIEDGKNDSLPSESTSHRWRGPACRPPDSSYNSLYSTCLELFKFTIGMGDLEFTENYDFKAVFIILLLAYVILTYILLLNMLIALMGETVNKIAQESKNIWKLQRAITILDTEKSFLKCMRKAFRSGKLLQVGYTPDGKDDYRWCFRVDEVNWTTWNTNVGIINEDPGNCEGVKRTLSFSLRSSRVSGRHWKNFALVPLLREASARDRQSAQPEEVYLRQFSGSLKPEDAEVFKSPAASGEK
Sequence of Transient receptor potential cation channel subfamily A member 1 (Mus musculus, UniProt Q8BLA8) (Q8BLA8 whole entry): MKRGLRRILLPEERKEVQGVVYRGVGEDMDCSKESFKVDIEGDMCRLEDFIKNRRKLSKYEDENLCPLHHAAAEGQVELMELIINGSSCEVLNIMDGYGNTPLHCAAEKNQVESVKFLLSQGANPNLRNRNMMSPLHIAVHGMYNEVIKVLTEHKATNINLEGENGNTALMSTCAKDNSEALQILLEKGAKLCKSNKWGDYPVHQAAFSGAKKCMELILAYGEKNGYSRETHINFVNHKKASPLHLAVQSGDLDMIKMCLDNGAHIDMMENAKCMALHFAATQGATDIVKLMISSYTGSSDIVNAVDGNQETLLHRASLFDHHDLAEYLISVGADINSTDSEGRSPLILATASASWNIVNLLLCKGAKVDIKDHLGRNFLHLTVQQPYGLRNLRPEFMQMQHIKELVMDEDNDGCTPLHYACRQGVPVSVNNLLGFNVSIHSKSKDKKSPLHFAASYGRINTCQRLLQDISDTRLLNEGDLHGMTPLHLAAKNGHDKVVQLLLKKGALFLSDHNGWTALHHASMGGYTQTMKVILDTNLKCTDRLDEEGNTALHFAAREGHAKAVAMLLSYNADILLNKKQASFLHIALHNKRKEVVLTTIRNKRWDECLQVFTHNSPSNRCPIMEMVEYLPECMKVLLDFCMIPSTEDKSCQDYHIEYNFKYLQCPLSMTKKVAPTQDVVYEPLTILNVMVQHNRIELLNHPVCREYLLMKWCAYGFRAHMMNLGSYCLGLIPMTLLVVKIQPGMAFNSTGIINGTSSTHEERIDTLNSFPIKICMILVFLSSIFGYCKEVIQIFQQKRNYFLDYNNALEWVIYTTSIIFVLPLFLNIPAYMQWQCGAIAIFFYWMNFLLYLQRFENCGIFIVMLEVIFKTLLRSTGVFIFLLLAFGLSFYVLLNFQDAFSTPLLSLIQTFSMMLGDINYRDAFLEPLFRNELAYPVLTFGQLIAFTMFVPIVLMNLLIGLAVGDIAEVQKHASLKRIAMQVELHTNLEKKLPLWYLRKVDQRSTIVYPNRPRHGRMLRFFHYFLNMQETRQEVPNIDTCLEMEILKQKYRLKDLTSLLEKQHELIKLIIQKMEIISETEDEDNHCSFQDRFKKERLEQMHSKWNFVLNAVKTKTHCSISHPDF

Turning to `CCC(=N\O)/C(C)=C/c1ccc(F)cc1` [A-079], the half-maximal inhibitory concentration (IC50) in series [1] is 289 nM; in [2], 296 nM; in series [3], 101 nM; in [8] it was above 100000 nM; in series [9] it was above 100000 nM; in series [10] it was above 100000 nM. Also, the outcome in series [4], in [5], in series [6], in series [7], in series [16] and in series [23] was inactive. The result in series [24] was inactive. The inhibition in [11] is below 20%; in series [12] it was below 20%; in [13], 32%. The outcome in series [14] and in [15] was Active. In addition, in [17], the bioavailability is 37%. This compound also came in with a Cmax in series [18] of 720 nM. In addition, the Kp in series [19] stood at 0.75. Moreover, in [20], the “Drug uptake(free)” value stood at 0.47 µmol/L. The Activity entry in series [21] and in series [22] was “Non-Toxic” in each case.
